Measured values as given in US20240043448A1, “Small Molecule Inhibitors of KRAS G12C Mutant” (Merck Sharp & Dohme LLC, priority 2019, published 2024).
Like-named read-outs stand apart in the source and are kept apart here.

Assays:
phospho-ERK = test: Cellular phospho-ERK assay; assay type: cell-based; settings: NCI-H358 cells, 2 hour incubation, ratio of p-Erk vs total Erk, read-out: IC50 (nM) pERK (Cell)
In short: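 NCI-H358 cells seeded overnight, then exposed to compound dose-response titrations for 2 hours at 37° C. in RPMI. Lysates assayed by AlphaLISA SureFire Ultra multiplex for p-Erk and total Erk; ratio p-Erk/total Erk used as readout, IC50 from 4-parameter logistic fit.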

[1] = target: Biotinylated KRAS G12C protein (Homo sapiens (Human), UniProt P01116, C118S/C51S/C80L/G12C); test: SOS-catalyzed nucleotide exchange assay (TR-FRET); assay type: biochemical; settings: in vitro apparent potency; preincubation time of 60 minutes prior to addition of SOS
In short: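 Biotinylated KRAS G12C preloaded with Bodipy-GDP and Tb-streptavidin, then incubated with compound (10-point, 3-fold series) for 60 min at RT. Exchange started with SOS and GTP for 60 min. TR-FRET 520/495 ratio normalised to DMSO and saturating-inhibitor controls; four-parameter fit.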

Row | Compound | IC50 (phospho-ERK) [nM] | IC50 [1] [nM] | IC50 (phospho-ERK; Homo sapiens, NCI-H358, 2 h) [nM]
1 | C=CC(=O)N1C[C@H](C)N(c2nc(=O)n3c4nc(c(F)cc24)-c2c(F)cccc2OCCCc2ccnc(C(C)C)c2-3)C[C@H]1C [Example 75, 2-[(2S,5R)-2,5-dimethyl-4-(prop-2-enoyl)piperazin-1-yl]-17,20-difluoro-6-(propan-2-yl)-11,12-dihydro-4H,10H-1,18-ethenopyrido[4,3-e]pyrimido[1,6-g][1,7,9]benzoxadiazacyclododecin-4-one] |  | 1.7 | 8.8
2 | C=CC(=O)N1C[C@H](C)N(c2nc(=O)n3c4nc(c(F)cc24)-c2c(Cl)cccc2OCCCc2ccnc(C(C)C)c2-3)C[C@H]1C [Example 76, 17-chloro-2-[(2S,5R)-2,5-dimethyl-4-(prop-2-enoyl)piperazin-1-yl]-20-fluoro-6-(propan-2-yl)-11,12-dihydro-4H,10H-1,18-ethenopyrido[4,3-e]pyrimido[1,6-g][1,7,9]benzoxadiazacyclododecin-4-one] |  | 2.3 | 3.6
3 | C=CC(=O)N1C[C@H](C)N(c2nc(=O)n3c4nc(c(F)cc24)-c2c(cc(F)c(F)c2F)OCCCc2ccnc(C(C)C)c2-3)C[C@H]1C [Example 80, 2-[(2S,5R)-2,5-dimethyl-4-(prop-2-enoyl)piperazin-1-yl]-15,16,17,20-tetrafluoro-6-(propan-2-yl)-11,12-dihydro-4H,10H-1,18-ethenopyrido[4,3-d]pyrimido[1,6-g][1,7,9]benzoxadiazacyclododecin-4-one] |  | 2.6 | 54
4 | C=C(F)C(=O)N1CCN(c2nc(=O)n3c4nc(c(F)cc24)-c2c(F)cccc2OCCCCc2ccnc(C(C)C)c2-3)[C@@H](C)C1 [Example 85, 18,21-difluoro-2-[(2S)-4-(2-fluoroprop-2-enoyl)-2-methylpiperazin-1-yl]-6-(propan-2-yl)-10,11,12,13-tetrahydro-4H-1,19-ethenopyrido[4,3-f]pyrimido[1,6-h][1,8,10]benzoxadiazacyclotridecin-4-one] |  | 47 | 198
5 | C=CC(=O)N1CCN(c2nc(=O)n3c4nc(c(F)cc24)-c2c(F)cccc2OCCCc2ccnc(C(C)C)c2-3)C[C@@H]1CC#N (single isomer, unassigned) [Example 11a] |  | 19 | 395
6 | C=CC(=O)N1CCN(c2nc(=O)n3c4nc(c(F)cc24)-c2c(F)cccc2C(=O)NCCCc2ccnc(C(C)C)c2-3)[C@H](C)C1 [Example 19b, 18,21-difluoro-2-[(2S)-2-methyl-4-(prop-2-enoyl)piperazin-1-yl]-6-(propan-2-yl)-10,11,12,13-tetrahydro-1,19-ethenopyrido[3,4-e]pyrimido[6,1-c][2,4,10]benzotriazacyclotridecine-4,14-dione] | > 30000 | 4520 | 
7 | C=CC(=O)N1CCN(c2nc(=O)n3c4nc(c(F)cc24)-c2c(F)cccc2OCCCc2ccnc(C(C)C)c2-3)[C@@H](CC)C1 [Example 98, 2-[(25)-2-ethyl-4-(prop-2-enoyl)piperazin-1-yl]-17,20-difluoro-6-(propan-2-yl)-11,12-dihydro-4H,10H-1,18-(ethanediylidene)pyrido[4,3-e]pyrimido[1,6-g][1,7,9] benzoxadiazacyclododecin-4-one] |  | 11 | 49
8 | C=CC(=O)N1CCN(c2nc(=O)n3c4nc(c(F)cc24)-c2c(F)cccc2OCCCc2ccnc(C(C)C)c2-3)[C@@H](C)C1 (single isomer, unassigned) [Example 10a] | 6.7 | 4.3 | 
9 | C=CC(=O)N1C[C@H](C)N(c2nc(=O)n3c4nc(c(F)cc24)-c2c(F)ccc(F)c2OCCOc2ccnc(C4CC4)c2-3)C[C@H]1C [Example 111, 6-cyclopropyl-2-[(2S,5R)-2,5-dimethyl-4-(prop-2-enoyl)piperazin-1-yl]-14,17,20-trifluoro-11,12-dihydro-4H-1,18-ethenopyrido[4,3-e]pyrimido[1,6-g][1,4,7,9]benzodioxadiazacyclododecin-4-one] | 154 | 17 | 
10 | C=CC(=O)N1C[C@H](C)N(c2nc(=O)n3c4cc(c(F)cc24)-c2c(F)ccc(F)c2OCCOc2ccnc(C(C)C)c2-3)C[C@H]1C [Example 93, 2-[(2S,5R)-2,5-dimethyl-4-(prop-2-enoyl)piperazin-1-yl]-14,17,20-trifluoro-6-(propan-2-yl)-11,12-dihydro-4H-1,18-(ethanediylidene)pyrido[4,3-e]pyrimido[1,6-g][1,4,7]benzodioxazacyclododecin-4-one] |  | 31 | 572
11 | C=CC(=O)N1C[C@H](C)N(c2nc(=O)n3c4nc(c(F)cc24)-c2c(ccc(F)c2F)OCCC(C)c2ccnc(C(C)C)c2-3)C[C@H]1C (stereo partly drawn) [Example 90, 2-[(2S,5R)-2,5-dimethyl-4-(prop-2-enoyl)piperazin-1-yl]-16,17,20-trifluoro-10-methyl-6-(propan-2-yl)-11,12-dihydro-4H,10H-1,18-ethenopyrido[4,3-e]pyrimido[1,6-g][1,7,9]benzoxadiazacyclododecin-4-one] |  | 1.4 | 6.8
12 | [(2S)-4-[17,20-difluoro-4- oxo-6-(propan-2-yl)-11,12- dihydro-4H-1,18- (ethanediylidene)pyrido[4,3- e]pyrimido[1,6-g][1,4,7,9] benzodioxadiazacyclo- dodecin-2-yl]-1-(prop-2- enoyl)piperazin-2- yl]acetonitrile [Example 14a] | 1240 | 8.1 | 
13 | C=CC(=O)N1CCN(c2nc(=O)n3c4nc(c(F)cc24)-c2c(F)cccc2OCCCc2ccnc(C(C)C)c2-3)[C@@H](C)C1 (single isomer, unassigned) [Example 10b] | 4380 | 2590 | 
14 | C=CC(=O)N1CCN(c2nc(=O)n3c4nc(c(F)cc24)-c2c(ccc(F)c2F)OCC(F)(F)CCc2ccnc(C(C)C)c2-3)[C@@H](C)C1 [Example 97, 12,12,17,18,21-pentafluoro-2-[(2S)-2-methyl-4-(prop-2-enoyl)piperazin-1-yl]-6-(propan-2-yl)-10,11,12,13-tetrahydro-4H-1,19-(ethanediylidene)pyrido[4,3-f]pyrimido[1,6-h][1,8,10]benzoxadiazacyclotridecin-4-one] | 3 | 0.56 | 

Second part, the compound after the results:

Row | IC50 (phospho-ERK) [nM] | IC50 [1] [nM] | IC50 (phospho-ERK; Homo sapiens, NCI-H358, 2 h) [nM] | Compound
15 | 13 | 6.5 |  | C=CC(=O)N1C[C@H](C)N(c2nc(=O)n3c4nc(c(F)cc24)-c2c(cccc2C(F)(F)F)OCCOc2ccnc(C(C)C)c2-3)C[C@H]1C [Example 73, 2-[(2S,5R)-2,5-dimethyl-4-(prop-2-enoyl)piperazin-1-yl]-20-fluoro-6-(propan-2-yl)-17-(trifluoromethyl)-11,12-dihydro-4H-1,18-(ethanediylidene)pyrido[4,3-e]pyrimido[1,6-g][1,4,7,9]benzodioxadiazacyclododecin-4-one]
16 | 19 | 1.8 |  | C=CC(=O)N1C[C@H](C)N(c2nc(=O)n3c4nc(c(F)cc24)-c2c(F)cccc2OCCOc2c(Cl)cnc(C(C)C)c2-3)C[C@H]1C [Example 70, 9-chloro-2-[(2S,5R)-2,5-dimethyl-4-(prop-2-enoyl)piperazin-1-yl]-17,20-difluoro-6-(propan-2-yl)-11,12-dihydro-4H-1,18-(ethanediylidene)pyrido[4,3-e]pyrimido[1,6-g][1,4,7,9]benzodioxadiazacyclododecin-4-one]
17 | 22100 | 8530 |  | C=CC(=O)N1C[C@H](C)N(c2nc(=O)n3c4nc(c(F)cc24)-c2c(F)cccc2OCC(F)(F)COc2ccnc(C(C)C)c2-3)C[C@H]1C (single isomer, unassigned) [Example 13b]
18 | 21 | 2.3 |  | C=CC(=O)N1CC(C)N(c2nc(=O)n3c4nc(c(Cl)cc24)-c2c(F)cccc2COCCc2ccnc(C(C)C)c2-3)CC1C [Example 109, 20-chloro-2-[(2S,5R)-2,5-dimethyl-4-(prop-2-enoyl)piperazin-1-yl]-17-fluoro-6-(propan-2-yl)-10,11-dihydro-1,18-ethenopyrido[3,4-e]pyrimido[6,1-c][9,2,4]benzoxadiazacyclododecin-4(13H)-one]
19 | 112 | 43 |  | C=CC(=O)N1C[C@H](C)N(c2nc(=O)n3c4nc(c(F)cc24)-c2cccc(F)c2OCCOc2ccnc(C(C)C)c2-3)C[C@H]1C [Example 114, 2-[(2S,5R)-2,5-dimethyl-4-(prop-2-enoyl)piperazin-1-yl]-14,20-difluoro-6-(propan-2-yl)-11,12-dihydro-4H-1,18-(ethanediylidene)pyrido[4,3-e]pyrimido[1,6-g][1,4,7,9]benzodioxadiazacyclododecin-4-one]
20 | 42 | 3.4 |  | C=CC(=O)N1C[C@H](C)N(c2nc(=O)n3c4nc(c(F)cc24)-c2c(F)ccc(F)c2OC[C@H](C)Oc2ccnc(C(C)C)c2-3)C[C@H]1C [Example 94, (11S)-2-[(2S,5R)-2,5-dimethyl-4-(prop-2-enoyl)piperazin-1-yl]-14,17,20-trifluoro-11-methyl-6-(propan-2-yl)-11,12-dihydro-4H-1,18-ethenopyrido[4,3-e]pyrimido[1,6-g][1,4,7,9]benzodioxadiazacyclododecin-4-one]
21 |  | 2.3 | 43 | C=CC(=O)N1C[C@H](C)N(c2nc(=O)n3c4nc(c(F)cc24)-c2c(F)ccc(F)c2OCC2(CCc4ccnc(C(C)C)c4-3)CC2)C[C@H]1C [Example 61, 2′-[(2S,5R)-2,5-dimethyl-4-(prop-2-enoyl)piperazin-1-yl]-15′,18′,21′-trifluoro-6′-(propan-2-yl)-10′,11′-dihydro-4′H,13′H-spiro[cyclopropane-1,12′-[14]oxa [3,5,7,20]tetraaza[1,19] (ethanediylidene)pyrido[4,3-f]pyrimido[1,6-h][1,8,10]benzoxadiazacyclotri-decin]-4′-one]
